Columns and labels:
[1] = biological target: wild type PRC2 (wtPRC2) complex (Homo sapiens, UniProt O75530); assay: EED LC-MS assay (SAH production by PRC2); assay type: biochemical; conditions: PRC2 LC-MS assay; read-out: (b) IC50 EED LC-MS Qualified
Method in brief: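 LC-MS/MS readout of SAH (d4-SAH standard) after TFA quench gives PRC2 activity, normalized to controls and fitted to dose-response for IC50. Reaction: 12 nM EZH2/SUZ12/EED/Rbap48/AEBP complex, 1 μM SAM, 1.5 μM H3[21-44] peptide, 120 min rt, 20 min compound preincubation.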

[2] = biological target: T1, EED (1-441)-His protein (Homo sapiens, UniProt O75530); assay: EED-H3K27Me3 peptide competition binding assay by AlphaScreen; conditions: EED-H3K27Me3 peptide competition, AlphaScreen; read-out: (a) IC50 EED Alphascreen binding Qualified
T1 construct: 30 nM EED (1-441)-His protein
Method in brief: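 Serially diluted compound (12 points, 3-fold) incubated 20 min with 30 nM EED(1-441)-His and 15 nM biotin-H3K27Me3(19-33) peptide in 25 mM HEPES pH 8, 0.02% Tween-20, 0.5% BSA. Ni-chelate acceptor/streptavidin donor beads (10 μg/mL each) added, 1 h rt dark; 615 nm emission normalized to controls, dose-response fit for IC50.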

[3] = test system: H3K27 methylation in G401 cell; assay: ELISA (H3K27 methylation) assay in G401 cells; assay type: cell-based, human; conditions: Homo sapiens, G-401, H3K27 methylation ELISA, read-out: (c) IC50 ELISA Qualified
Method in brief: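 IC50 from dose-response fit of percent inhibition relative to DMSO, using H3K27me3/me2 ELISA signal (ECL) normalized to histone H3. Histones HCl-extracted after 48 h compound exposure of G401 cells at up to 20 μM, 8- or 12-point 3-fold series.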

Chain of wild type PRC2 (wtPRC2) complex (O75530 whole entry): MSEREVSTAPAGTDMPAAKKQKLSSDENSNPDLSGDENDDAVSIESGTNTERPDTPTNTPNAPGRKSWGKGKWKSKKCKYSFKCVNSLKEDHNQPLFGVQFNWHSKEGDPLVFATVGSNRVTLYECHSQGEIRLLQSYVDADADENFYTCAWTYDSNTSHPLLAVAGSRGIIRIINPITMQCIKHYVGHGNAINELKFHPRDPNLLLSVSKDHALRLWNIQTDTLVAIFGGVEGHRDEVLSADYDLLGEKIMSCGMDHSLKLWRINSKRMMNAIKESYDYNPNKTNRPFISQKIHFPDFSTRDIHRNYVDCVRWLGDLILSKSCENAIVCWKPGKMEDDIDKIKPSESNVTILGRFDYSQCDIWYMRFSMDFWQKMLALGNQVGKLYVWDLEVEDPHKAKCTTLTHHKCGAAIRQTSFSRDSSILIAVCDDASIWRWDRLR
Chain of wild type PRC2 (wtPRC2) complex (Q15910 whole entry partner): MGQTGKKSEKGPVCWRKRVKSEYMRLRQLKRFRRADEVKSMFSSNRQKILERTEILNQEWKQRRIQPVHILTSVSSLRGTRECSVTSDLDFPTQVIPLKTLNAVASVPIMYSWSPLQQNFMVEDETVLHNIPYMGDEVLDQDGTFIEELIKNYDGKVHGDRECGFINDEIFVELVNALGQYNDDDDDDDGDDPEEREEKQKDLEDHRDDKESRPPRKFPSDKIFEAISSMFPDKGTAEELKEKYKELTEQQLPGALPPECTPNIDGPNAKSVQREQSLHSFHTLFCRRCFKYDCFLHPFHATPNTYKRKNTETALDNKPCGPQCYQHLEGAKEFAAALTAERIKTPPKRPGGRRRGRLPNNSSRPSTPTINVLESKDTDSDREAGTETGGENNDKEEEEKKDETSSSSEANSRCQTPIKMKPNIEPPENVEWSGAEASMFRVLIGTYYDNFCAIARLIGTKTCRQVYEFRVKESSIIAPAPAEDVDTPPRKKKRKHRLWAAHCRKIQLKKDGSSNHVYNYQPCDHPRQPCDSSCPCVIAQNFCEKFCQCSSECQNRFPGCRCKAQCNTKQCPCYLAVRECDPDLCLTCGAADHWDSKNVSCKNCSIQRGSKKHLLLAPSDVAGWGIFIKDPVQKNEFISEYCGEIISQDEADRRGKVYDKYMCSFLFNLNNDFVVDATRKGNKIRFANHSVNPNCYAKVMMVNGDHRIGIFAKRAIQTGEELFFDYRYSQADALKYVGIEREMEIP
Chain of wild type PRC2 (wtPRC2) complex (Q15022 whole entry partner): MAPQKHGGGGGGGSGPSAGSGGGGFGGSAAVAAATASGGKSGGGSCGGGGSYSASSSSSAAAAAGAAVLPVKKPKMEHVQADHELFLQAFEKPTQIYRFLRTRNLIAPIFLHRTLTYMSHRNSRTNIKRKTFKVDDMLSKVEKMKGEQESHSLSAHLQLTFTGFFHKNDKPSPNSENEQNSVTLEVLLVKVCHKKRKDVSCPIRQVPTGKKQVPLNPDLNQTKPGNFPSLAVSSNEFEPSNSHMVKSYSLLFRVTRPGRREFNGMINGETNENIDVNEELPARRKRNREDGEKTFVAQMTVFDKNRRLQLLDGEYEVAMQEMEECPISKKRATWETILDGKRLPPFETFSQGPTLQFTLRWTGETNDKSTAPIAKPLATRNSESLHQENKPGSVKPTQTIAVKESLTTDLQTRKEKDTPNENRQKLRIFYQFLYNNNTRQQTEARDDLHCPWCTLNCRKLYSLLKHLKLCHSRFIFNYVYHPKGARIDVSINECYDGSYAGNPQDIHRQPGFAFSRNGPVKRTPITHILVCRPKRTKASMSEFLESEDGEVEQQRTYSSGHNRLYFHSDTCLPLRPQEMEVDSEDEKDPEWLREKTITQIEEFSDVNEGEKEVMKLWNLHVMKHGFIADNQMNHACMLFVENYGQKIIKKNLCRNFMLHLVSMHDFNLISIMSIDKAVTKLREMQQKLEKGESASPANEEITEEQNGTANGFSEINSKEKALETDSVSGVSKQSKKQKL
Chain of wild type PRC2 (wtPRC2) complex (Q09028 whole entry partner): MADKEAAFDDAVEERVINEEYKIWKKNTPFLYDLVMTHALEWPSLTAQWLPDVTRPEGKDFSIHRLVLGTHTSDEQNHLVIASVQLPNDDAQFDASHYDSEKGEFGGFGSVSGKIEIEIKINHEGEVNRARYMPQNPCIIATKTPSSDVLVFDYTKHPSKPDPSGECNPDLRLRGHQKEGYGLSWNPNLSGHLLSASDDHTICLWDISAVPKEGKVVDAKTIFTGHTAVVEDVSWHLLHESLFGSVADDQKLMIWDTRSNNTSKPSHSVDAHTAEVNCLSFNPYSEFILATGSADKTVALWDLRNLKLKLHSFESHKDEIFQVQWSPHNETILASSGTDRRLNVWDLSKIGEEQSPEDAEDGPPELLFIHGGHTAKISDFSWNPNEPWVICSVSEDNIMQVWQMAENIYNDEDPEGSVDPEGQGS
Chain of wild type PRC2 (wtPRC2) complex (Q6ZN18 whole entry partner): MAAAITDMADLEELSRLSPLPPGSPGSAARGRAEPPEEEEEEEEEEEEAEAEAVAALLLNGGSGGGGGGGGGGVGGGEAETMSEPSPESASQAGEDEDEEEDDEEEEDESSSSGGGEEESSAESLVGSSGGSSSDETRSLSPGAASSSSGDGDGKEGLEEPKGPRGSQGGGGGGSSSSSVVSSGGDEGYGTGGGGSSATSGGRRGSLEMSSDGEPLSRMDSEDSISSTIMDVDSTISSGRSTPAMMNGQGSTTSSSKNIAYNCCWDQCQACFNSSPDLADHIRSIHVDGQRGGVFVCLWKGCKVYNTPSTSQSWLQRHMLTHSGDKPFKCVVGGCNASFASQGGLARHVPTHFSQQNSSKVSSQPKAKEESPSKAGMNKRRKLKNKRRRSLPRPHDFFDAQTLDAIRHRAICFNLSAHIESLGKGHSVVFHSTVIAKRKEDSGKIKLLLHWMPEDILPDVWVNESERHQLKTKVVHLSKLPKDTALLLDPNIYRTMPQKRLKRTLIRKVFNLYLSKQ
T1 sequence (O75530 whole entry): as the sequence (O75530 whole entry) above

| SMILES | IC50 [1] [nM] | IC50 [2] [nM] | IC50 [3] [nM] |
| --- | --- | --- | --- |
| COc1ccncc1-c1ccc(NCc2c(F)cccc2OC)n2cnnc12 [Example 190, N-(2-fluoro-6-methoxybenzyl)-8-(4-methoxypyridin-3-yl)-[1,2,4] triazolo[4,3-a]pyridin-5-amine] | 240 | 41.5 | 13.1 |
| COc1cccc(F)c1CNc1ccc(-c2ccccc2Cl)c2nncn12 [Example 192, 8-(2-chlorophenyl)-N-(2-fluoro-6-methoxybenzyl)-[1,2,4]triazolo[4,3-a]pyridin-5-amine] | 348 | 88.8 | 118 |
| COc1cccc(F)c1CNc1ccc(-c2ccc(C(=O)N(C)C)nc2)c2nncn12 [Example 194, 5-(5-((2-fluoro-6-methoxybenzyl)amino)-[1,2,4]triazolo[4,3-a]pyridin-8-yl)-N,N-dimethylpicolinamide] | 49.4 | 16.5 | 6.3 |
| COc1cccc(F)c1CNc1ccc(-c2cncc(C(=O)N(C)C)c2)c2nncn12 [Example 195, 5-(5-((2-fluoro-6-methoxybenzyl)amino)-[1,2,4]triazolo[4,3-a]pyridin-8-yl)-N,N-dimethylnicotinamide] | 61.3 | 17.6 | 8 |
| COc1cccc(F)c1CNc1ccc(-c2ccc(NC(C)=O)nc2)c2nncn12 [Example 196, N-(5-(5-((2-fluoro-6-methoxybenzyl)amino)-[1,2,4]triazolo[4,3-a]pyridin-8-yl)pyridin-2-yl)acetamide] | 164 | 25.3 | 43.8 |
| COc1cccc(F)c1CNc1ccc(-c2cncc(OCCCS(C)(=O)=O)c2)c2nncn12 [Example 198, N-(2-fluoro-6-methoxybenzyl)-8-(5-(3-(methylsulfonyl)propoxy)pyridin-3-yl)-[1,2,4]triazolo [4,3-a]pyridin-5-amine] | 235 | 34.5 | 32 |
| COc1cccc(F)c1CNc1ccc(-c2cncc(C3=NC(C)(C)CO3)c2)c2nncn12 [Example 199, 8-(5-(4,4-dimethyl-4,5-dihydrooxazol-2-yl)pyridin-3-yl)-N-(2-fluoro-6-methoxybenzyl)-[1,2,4]triazolo[4,3-a] pyridin-5-amine] | 328 | 23.7 | 31.3 |
| COc1cccc(F)c1CNc1ccc(-c2cc(F)c(N)c(F)c2)c2nncn12 [Example 200, 8-(4-amino-3,5-difluorophenyl)-N-(2-fluoro-6-methoxybenzyl)-[1,2,4] triazolo[4,3-a]pyridin-5-amine] | 225 | 71.1 | 110 |
| COc1cccc(F)c1CNc1ccc(-c2ccc(F)cc2C)c2nncn12 [Example 201, 8-(4-fluoro-2-methylphenyl)-N-(2-fluoro-6-methoxybenzyl)-[1,2,4]triazolo[4,3-a] pyridin-5-amine] | 366 | 46.5 | 71.7 |
| COCc1cncc(-c2ccc(NCc3c(F)cccc3OC)n3cnnc23)c1 [Example 203, N-(2-fluoro-6-methoxybenzyl)-8-(5-(methoxymethyl)pyridin-3-yl)-[1,2,4]triazolo[4,3-a] pyridin-5-amine] | 73 | 53.8 | 38.7 |
| COc1cccc(F)c1CNc1ccc(-c2ccc(C(C)O)nc2)c2nncn12 (stereo not drawn) [Example 205, 1-(5-(5-((2-fluoro-6-methoxybenzyl)amino)-[1,2,4]triazolo[4,3-a]pyridin-8-yl)pyridin-2-yl)ethanol] | 160 | 53.1 | 43.7 |
| COc1cccc(F)c1CNc1ccc(-c2ccc(C(=O)N(C)C)cc2)c2nncn12 [Example 206, 4-(5-((2-fluoro-6-methoxybenzyl)amino)-[1,2,4]triazolo[4,3-a]pyridin-8-yl)-N,N-dimethylbenzamide] | 48 | 24 | 24.1 |
| COc1cccc(F)c1CNc1ccc(-c2cncc(O)c2)c2nncn12 [Example 207, 5-(5-((2-fluoro-6-methoxybenzyl)amino)-[1,2,4]triazolo[4,3-a]pyridin-8-yl) pyridin-3-ol] | 467 | 24.9 | 74.8 |
| COc1cccc(F)c1CNc1ccc(-c2cnn(C3CC3)c2)c2nncn12 [Example 210, 8-(1-cyclopropyl-1H-pyrazol-4-yl)-N-(2-fluoro-6-methoxybenzyl)-[1,2,4] triazolo[4,3-a]pyridin-5-amine] | 165 | 42.4 | 61.9 |
| COc1cccc(F)c1CNc1ccc(-c2cnn(C3CCOCC3)c2)c2nncn12 [Example 212, N-(2-fluoro-6-methoxybenzyl)-8-(1-(tetrahydro-2H-pyran-4-yl)-1H-pyrazol-4-yl)-[1,2,4]triazolo[4,3-a] pyridin-5-amine] | 75.6 | 18 | 22.6 |
| COc1cccc(F)c1CNc1ccc(-c2cccnc2Cl)c2nncn12 [Example 213, 8-(2-chloropyridin-3-yl)-N-(2-fluoro-6-methoxybenzyl)-[1,2,4]triazolo[4,3-a]pyridin-5-amine] | 20 | 20.5 | 16.5 |
| CO/N=C(\C)c1ccc(-c2ccc(NCc3c(F)cccc3OC)n3cnnc23)cn1 [Example 214, (E)-1-(5-(5-((2-fluoro-6-methoxybenzyl)amino)-[1,2,4]triazolo[4,3-a]pyridin-8-yl)pyridin-2-yl)ethanone O-methyl oxime] | 965 | 55.2 | 62.7 |
| COc1cccc(F)c1CNc1ccc(-c2ccc(N3CCCC3=O)nc2)c2nncn12 [Example 215, 1-(5-(5-((2-fluoro-6-methoxybenzyl)amino)-[1,2,4]triazolo[4,3-a]pyridin-8-yl)pyridin-2-yl)pyrrolidin-2-one] | 150 | 20 | 55 |
| COc1cccc(F)c1CNc1ccc(-c2cncc(C(C)(C)O)c2)c2nncn12 [Example 216, 2-(5-(5-((2-fluoro-6-methoxybenzyl)amino)-[1,2,4]triazolo[4,3-a]pyridin-8-yl)pyridin-3-yl)propan-2-ol] | 449 | 33 | 25.5 |
| CNC(=O)Cc1cncc(-c2ccc(NCc3c(F)cccc3OC)n3cnnc23)c1 [Example 217, 2-(5-(5-((2-fluoro-6-methoxybenzyl)amino)-[1,2,4]triazolo[4,3-a]pyridin-8-yl)pyridin-3-yl)-N-methyl acetamide] | 946 | 34.3 | 25 |
| COc1cccc(F)c1CNc1ccc(-c2c(C)ccnc2F)c2nncn12 [Example 218, 8-(2-fluoro-4-methylpyridin-3-yl)-N-(2-fluoro-6-methoxybenzyl)-[1,2,4]triazolo[4,3-a] pyridin-5-amine] | 79.5 | 38.3 | 42 |
| COc1cccc(F)c1CNc1ccc(-c2cncc(F)c2C)c2nncn12 [Example 219, 8-(5-fluoro-4-methylpyridin-3-yl)-N-(2-fluoro-6-methoxybenzyl)-[1,2,4]triazolo[4,3-a] pyridin-5-amine] | 213 | 29.1 | 26.7 |
| COc1cc(F)cc(F)c1CNc1ccc(-c2cccnc2)c2nncn12 [Example 220, N-(2,4-difluoro-6-methoxybenzyl)-8-(pyridin-3-yl)-[1,2,4]triazolo[4,3-a]pyridin-5-amine] | 142 | 46 | 55.6 |
